Source: patent US9409905B2, “Antibacterial compounds and methods for use” (PTC THERAPEUTICS, INC., priority 2011, dated 2016)
Converted amounts (≈) assume the structure as drawn.

Tests used:
[1] = test system: Escherichia coli (E. coli) BAS849; assay: Antibacterial activity, microbroth dilution MIC (Table 1); assay type: cell-based; conditions: microbroth dilution, super sensitive Gram-negative E. coli BAS849, read-out: MIC, BAS849
How it was run: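 Each strain is exposed to test compound in a microbroth dilution series; visible growth is scored macroscopically, and the lowest growth-free concentration is recorded as MIC in μg/mL.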

[2] = test system: Staphylococcus aureus (S. aureus) 29213; assay: as above; assay type: cell-based; conditions: microbroth dilution, Gram-positive S. aureus 29213, read-out: MIC, 29213
How it was run: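 In a microbroth dilution test, the minimum inhibitory concentration was defined as the lowest compound level preventing growth seen by eye, and was given in μg/mL.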

[3] = test system: E. coli 25922; assay: as above; assay type: cell-based, Escherichia coli; conditions: Escherichia coli; microbroth dilution; control Gram-negative E. coli 25922 strain; read-out: MIC, 25922
How it was run: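 Read-out: visual absence of growth. The lowest concentration meeting this gives the MIC, expressed in μg/mL, with microbroth dilution as the method.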

[4] = test system: E. coli LZ3111; assay: Antibacterial activity, MIC, quinolone resistant strain (Table 2); assay type: cell-based; conditions: Escherichia coli, LZ3111, read-out: MIC LZ3111
How it was run: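 Microbroth dilution method; MIC (μg/mL) is the lowest drug concentration preventing macroscopically visible growth under test conditions.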

[5] = test system: E. coli ELZ4000; assay: Antibacterial activity, MIC, multi-drug resistant clinical isolate (Table 3); assay type: cell-based; conditions: Escherichia coli, ELZ4000, read-out: MIC ELZ4000
How it was run: (§1)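 Broth microdilution assay; MIC reported in μg/mL as the lowest drug concentration preventing macroscopically visible growth under test conditions.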

[6] = test system: E. coli ELZ4251; assay: as above; assay type: cell-based; conditions: Escherichia coli
How it was run: as §1

[7] = test system: Acinetobacter baumannii (A. baumannii) BAA747; assay: Antibacterial activity, MIC (Table 4); assay type: cell-based; conditions: A. baumannii BAA747, read-out: MIC, BAA747
How it was run: (§2)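 The resistant panel comprises multi-drug resistant clinical isolates. All strains were tested by microbroth dilution, with the MIC in μg/mL taken as the lowest concentration that prevented macroscopically visible growth.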

[8] = test system: Klebsiella pneumoniae (K. pneumoniae) 35657; assay: Antibacterial activity, MIC (Table 4); assay type: cell-based; conditions: K. pneumoniae 35657, read-out: MIC, 35657
How it was run: as §2

[9] = test system: A. baumannii MXX2240; assay: Antibacterial activity, MIC, resistant strain (Table 4); assay type: cell-based; conditions: Acinetobacter baumannii, MXX2240; resistant A. baumannii MMX2240, multi-drug resistant clinical isolate; read-out: MIC, MMX2240
How it was run: as §2

[10] = test system: K. pneumoniae MXX1232; assay: as above; assay type: cell-based; conditions: Klebsiella pneumoniae, MXX1232; resistant K. pneumoniae MMX1232, multi-drug resistant clinical isolate; read-out: MIC, MMX1232
How it was run: as §2

[11] = test system: Pseudomonas aeruginosa (P. aeruginosa) 27853; assay: Antibacterial activity, MIC (Table 5); assay type: cell-based; conditions: P. aeruginosa 27853, read-out: MIC, 27853
How it was run: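 Activity was measured by microbroth dilution. The MIC, in μg/mL, is the lowest drug concentration that prevents macroscopically visible growth under the test conditions.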

[12] = test system: Haemophilus influenzae (H. influenzae) 49247; assay: Antibacterial activity, MIC (Table 6); assay type: cell-based
How it was run: (§3)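 Values are minimum inhibitory concentrations in μg/mL, read as the lowest compound concentration at which no growth is visible to the eye. Testing used a microbroth dilution format.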

[13] = test system: Moraxella catarrhalis (M. catarrhalis) 25238; assay: Antibacterial activity, MIC (Table 7); assay type: cell-based
How it was run: as §3

[14] = test system: Neisseria meningitidis (N. meningitidis) 13090; assay: Antibacterial activity, MIC (Table 8); assay type: cell-based
How it was run: as §3

SMILES | MIC [1] [µg/mL] | MIC [2] [µg/mL] | MIC [3] [µg/mL] | MIC [4] [µg/mL] | MIC [5] [µg/mL] | MIC [6] [µg/mL] | MIC [7] [µg/mL] | MIC [8] [µg/mL] | MIC [9] [µg/mL] | MIC [10] [µg/mL] | MIC [11] [µg/mL] | MIC [12] [µg/mL] | MIC [13] [µg/mL] | MIC [14] [µg/mL]
CCc1c(-c2ccc3c(c2)cc(CN2CC4CCCNC4C2)n3C)[nH]c(=O)c(C(=O)O)c1O (stereo not shown) [Cpd 184, 5-ethyl-4-hydroxy-6-(1-methyl-2-((tetrahydro-1H-pyrrolo[3,4-b]pyridin-6(2H,7H,7aH)-yl)methyl)-1H-indol-5-yl)-2-oxo-1,2-dihydropyridine-3-carboxylic acid] | < 1 | 12.5 to 150 (≈ 27.7 to 333 µM) | 1 to 3.5 (≈ 2.22 to 7.77 µM) | 1 to 3.5 (≈ 2.22 to 7.77 µM) | 12.5 to 150 (≈ 27.7 to 333 µM) | 3.5 to 12.5 (≈ 7.77 to 27.7 µM) | 3.5 to 12.5 (≈ 7.77 to 27.7 µM) | 1 to 3.5 (≈ 2.22 to 7.77 µM) | 12.5 to 150 (≈ 27.7 to 333 µM) | 12.5 to 150 (≈ 27.7 to 333 µM) | 12.5 to 150 (≈ 27.7 to 333 µM) | 1 to 3.5 (≈ 2.22 to 7.77 µM) | 1 to 3.5 (≈ 2.22 to 7.77 µM) | < 1
CCc1c(-c2ccc3c(c2)cc(CN2C[C@H]4CCC[C@@H](N(C)C)[C@H]4C2)n3C)[nH]c(=O)c(C(=O)O)c1O [Cpd 279, 6-(2-(((3aR,4R,7aS)-4-(dimethylamino)-1H-isoindol-2(3H,3aH,4H,5H,6H,7H,7aH)-yl)methyl)-1-methyl-1H-indol-5-yl)-5-ethyl-4-hydroxy-2-oxo-1,2-dihydropyridine-3-carboxylic acid] | < 1 | 3.5 to 12.5 (≈ 7.1 to 25.4 µM) | 1 to 3.5 (≈ 2.03 to 7.1 µM) | 1 to 3.5 (≈ 2.03 to 7.1 µM) | 12.5 to 150 (≈ 25.4 to 304 µM) | 12.5 to 150 (≈ 25.4 to 304 µM) | 1 to 3.5 (≈ 2.03 to 7.1 µM) | 1 to 3.5 (≈ 2.03 to 7.1 µM) | 12.5 to 150 (≈ 25.4 to 304 µM) | 12.5 to 150 (≈ 25.4 to 304 µM) | 12.5 to 150 (≈ 25.4 to 304 µM) | 1 to 3.5 (≈ 2.03 to 7.1 µM) | 1 to 3.5 (≈ 2.03 to 7.1 µM) | < 1
CCc1c(-c2ccc3c(c2)cc(CNC2(C)CC2)n3C)[nH]c(=O)c(C(=O)O)c1O [Cpd 275, 5-ethyl-4-hydroxy-6-(1-methyl-2-((1-methylcyclopropylamino)methyl)-1H-indol-5-yl)-2-oxo-1,2-dihydropyridine-3-carboxylic acid] | < 1 | 3.5 to 12.5 (≈ 8.85 to 31.6 µM) | < 1 | < 1 | 1 to 3.5 (≈ 2.53 to 8.85 µM) | 1 to 3.5 (≈ 2.53 to 8.85 µM) | < 1 | 1 to 3.5 (≈ 2.53 to 8.85 µM) | < 1 | 12.5 to 150 (≈ 31.6 to 379 µM) | 3.5 to 12.5 (≈ 8.85 to 31.6 µM) | < 1 | < 1 | < 1
CCc1c(-c2ccc3c(c2)cc(CNC2CC2)n3C)[nH]c(=O)c(C(=O)O)c1O.Cl [Cpd 228, 6-(2-((cyclopropylamino)methyl)-1-methyl-1H-indol-5-yl)-5-ethyl-4-hydroxy-2-oxo-1,2-dihydropyridine-3-carboxylic acid hydrochloride] | < 1 | 3.5 to 12.5 | < 1 | 1 to 3.5 | 3.5 to 12.5 | 1 to 3.5 | < 1 | 1 to 3.5 | 1 to 3.5 | 12.5 to 150 | 3.5 to 12.5 | < 1 | < 1 | < 1
CCc1c(-c2ccc3c(c2)cc(CN2CCC(NC)C2)n3C)[nH]c(=O)c(C(=O)O)c1O (stereo not shown) [Cpd 181, 5-ethyl-4-hydroxy-6-(1-methyl-2-((3-(methylamino)pyrrolidin-1-yl)methyl)-1H-indol-5-yl)-2-oxo-1,2-dihydropyridine-3-carboxylic acid] | < 1 | 12.5 to 150 (≈ 29.4 to 353 µM) | 1 to 3.5 (≈ 2.36 to 8.24 µM) | 1 to 3.5 (≈ 2.36 to 8.24 µM) | 12.5 to 150 (≈ 29.4 to 353 µM) | 12.5 to 150 (≈ 29.4 to 353 µM) | 3.5 to 12.5 (≈ 8.24 to 29.4 µM) | 1 to 3.5 (≈ 2.36 to 8.24 µM) | 12.5 to 150 (≈ 29.4 to 353 µM) | 12.5 to 150 (≈ 29.4 to 353 µM) | 12.5 to 150 (≈ 29.4 to 353 µM) | 1 to 3.5 (≈ 2.36 to 8.24 µM) | 1 to 3.5 (≈ 2.36 to 8.24 µM) | 1 to 3.5 (≈ 2.36 to 8.24 µM)
